Experimental data from patent US20210113602A1, “USE OF 6-THIO-2'-DEOXYGUANOSINE (6-THIO-dG) TO TREAT MELANOMA” (The Board of Regents of the University of Texas System, priority 2018, published 2021).
“Also recorded” adds a separate entry of the source.

Legend:
[1] = test system: NRAS mutant melanoma cells; test: Telomere dysfunction-induced foci (TIF) assay; format: cell-based, human; conditions: WM3000 transduced with TERT shRNA; NAC 1 mM for 7 days
Procedure: Supplementary FIGS. 6a-b. […] NRAS mutant melanoma cells WM3000 were transduced with TERT shRNA and treated with NAC […] for 7 days. (Supplementary FIG. 6a) TIFs were assessed by indirect immunofluorescence combined with fluorescence in situ hybridization (FISH). Representative images are shown (scale bar=10 μm). (Supplementary FIG. 6b) Quantification of TIF positive cells. Cells were scored as TIF positive when three or more y-H2AS foci (green) were co-localizing with telomere foci (red). Data represent average of thirteen fields imaged +/−SD.
Supplementary FIGS. 8a-d. NRAS mutant melanoma cells are sensitive to the telomere uncapping agent 6-thio-dG. NRAS^mut melanoma cells were treated with 6-thio-dG for 6, 12 or 18 days. (Supplementary FIG. 8a) Relative cell number was assessed by Cyrstal Violet assay and calculated relative to DMSO-treated cells. […] (Supplementary FIG. 8c) NRAS^mut cells were treated with 6-thio-dG for 7 days and telomere-induced foci (TIF) were determined by indirect immunofluorescence combined with fluorescence in situ hybridization (FISH). […] (Supplementary FIG. 8d) Quantification of TIF assay. Cells were scored as TIF-positive when four or more γ-H2AX foci (green) were co-localizing with telomere foci (red). […] P values were calculated by unpaired Student's t-test.
DNA damage and telomere dysfunction assay (TIF). […] Mean fluorescence staining was quantified by flow cytometry. […]

[2] = test system: NRAS mutant melanoma spheroids; test: 3D collagen-embedded melanoma spheroids, live/dead staining; format: cell-based, human; conditions: 6-thio-dG (5 μM) and Ganetespib (5 μM); day 7
Procedure: (FIG. 6a) Collagen-embedded melanoma spheroids were treated with DMSO, 6-thio-dG (5 μM) and Gam (5 μM) as in FIGS. 4a-c. On day 7, spheroids were stained with Calcein AM (live cells;
green) and EtBr (dead cells; red) and imaged using an inverted microscope (4×; scale bar=250 μm). Representative merged images from three independent experiments are shown. (FIGS. 6b-d) NRAS mutant M93-047 tumor bearing mice were treated with vehicle control, 6-thio-dG (2.5 mg/kg; ip qd), Gam (12.5 mg/kg; ip qod), or the combination of the two drugs for the indicated days (n=7 mice/group). (FIG. 6b) Average tumor volume over time±SEM is represented. (FIG. 6c) Average tumor weight±SEM after 14 days of treatment. P values were calculated using unpaired Student's t-test. * p<0.05, **p<0.01, ***p<0.005, when comparing vehicle control vs. combination treatment groups. […] Kaplan Meier survival curves of mice treated for 14 days. p-values were calculated by Mantel-Cox logrank test; * p<0.05, **p<0.01, ***p<0.005. (FIG. 6e) Animal weight (grams) before treatment (start of TX) and at the end of the study (End of TX) was assessed and recorded for every mouse enrolled in the study. […] Statistical significance was assessed by unpaired Student's t-test.
Supplementary FIGS. 10a-b. […] Percent cell death was determined by flow cytometry following staining of cells with Annexin V and Propidium iodide. […]

KRAS mutant HCT116 cells = test: Cell death, Annexin V/PI; format: cell-based, human; conditions: 1 μM 6-thio-dG, 5 μM Gam
[3] = test system: NRAS-WT/BRAF-WT melanoma cells; test: Cell death, Annexin V/PI; format: cell-based, human; conditions: single agents or combination; 1 μM 6-thio-dG, 5 μM Gam
SOD2 = conditions: cited from earlier work
NRAS mutant SKNAS cells = test: Cell death, Annexin V/PI; format: cell-based, human; conditions: single agents or combination; 1 μM 6-thio-dG, 5 μM Gam
[4] = test system: NRAS-WT/BRAF-mut melanoma cells; test: Cell death, Annexin V/PI; format: cell-based, human
KRAS mutant A549 cells = test: Cell death, Annexin V/PI; format: cell-based, human; conditions: 1 μM 6-thio-dG, 5 μM Gam
NRAS mutant cells = conditions: cited from earlier work
BRAF-mutant melanoma = conditions: cited from earlier work
[5] = test system: NRAS mutant melanoma cells; test: Cell death by flow cytometry (PSVue or Annexin V/PI); format: cell-based; conditions: TERT shRNA 7 dpi; 5 μM Gamitrinib for 48 h
Procedure: (FIG. 2d) NRASmut melanoma cells and non-transformed human fibroblasts were treated with 1 or 5 μM 6-thio-dG for 7 or 14 days. Cell death was assessed by PSVUe staining. Percent of apoptotic cells is shown. […] (FIGS. 2f-g) Cells were treated with 1 μM 6-thio-dG for 7 days. […] Data represent average from three independent experiments±SEM. *p<0.05; **p<0.01; ***p<0.005 in unpaired Student's t-test.
(FIG. 3f) SOD2 was silenced using shRNA. Transduced M93-047 cells were treated with DMSO or 1 μM of 6-thio-dG and cell death was assessed by Annexin V/PI straining. (FIG. 3g) M93-047 cells were transduced with a SOD2 lentiviral construct or empty vector control (pLX304). Transduced cells were treated with increasing doses (1, 2.5 and 5 μM) of 6-thio-dG for 7 days and cell death was assessed. Data represent average from three independent experiments±SEM. *p<0.05; **p<0.01; ***p<0.005 in unpaired Student's t-test.
(FIG. 4a) NRASmut melanoma cells transduced with TERT shRNA were treated 7 days post infection with 5 μM Gamitrinib (Gam) for 48 h. Cell death was assessed by Annexin V and PI staining. (FIG. 4b) NRASmut melanoma cells and non-transformed fibroblasts were treated with 1 μM 6-thio-dG for 5 days. At day 5, culture medium was replaced and cells treated with 1 μM 6-thio-dG plus 5 μM Gam for two more days. Cells were stained with Annexin V and PI and percent cell death was determined by flow cytometry. […] Data represent average of three independent experiments ±SEM. P values were calculated using unpaired Student's t-test; * p<0.05; ***p<0.005.
(Supplementary FIG. 10a) NRASmut melanoma cells were treated with 6-thio-dG (1 μ) for 7 days total. At day 5, culture medium was replaced and cells were treated with 1 μM 6-thio-dG plus 1 mM Phenformin for two more days. Percent cell death was determined by flow cytometry following staining of cells with Annexin V and Propidium iodide. Data represent average of three independent experiments +/−SEM. *p<0.05 in unpaired Student's t-test.

In the case of `CC(=O)N[C@@H](CS)C(=O)O` [NAC, N-acetyl-L-cysteine], the “number of TIF in TERT depleted cells” value [1] is reported as “attenuates TIFs; also recorded: attenuated the number of TIF”.

For `CC(C)c1cc(-c2n[nH]c(=O)n2-c2ccc3c(ccn3C)c2)c(O)cc1O` [ganetespib], the “enhancement of 6-thio-dG efficacy in spheroids” value [2] was “did not substantially enhance the efficacy”.

For Gamitrinib [reference compound], the cell death (KRAS mutant HCT116 cells) is listed as “did not induce substantial death”, the cell death [3] is listed as “did not induce cell death” and the SOD2 levels (SOD2) is listed as “downregulate SOD2 levels”. The cell death (NRAS mutant SKNAS cells) was “triggered significant death”, the “cell death (in words)” value ([4]; 1 μM 6-thio-dG, 5 μM Gam) was “highly sensitive” and the cell death ([4]; Gamitrinib alone, 5 μM) was 75-80%. For the same molecule, the cell death (KRAS mutant A549 cells) was “did not induce substantial death”, the “anti-cancer activity as a single agent” value (NRAS mutant cells) was “limited activity” and the anti-cancer efficacy (BRAF-mutant melanoma) was “efficacy”. For the same molecule, the “cytotoxic effects in TERT depleted cells” value [5] was “enhanced the cytotoxic effects”.
